These results are taken from patent EP0917465B1, “ANTIMALARIAL AND ANTI-BABESIOSIS AGENTS AND PHARMACEUTICAL COMPOSITIONS CONTAINING THE SAME AGENTS” (priority 1996, dated 1998).

SMILES strings stand for the structures. Where two headings read alike, the source gives them in different places.

In assay [1] the test system is Babesia Bovis, Babesia Canis. Kind of assay: In vitro anti-Babesia activity, (3H) hypoxanthine incorporation. It is filed as cell-based. The settings on record: class of ID 50 for (3H) hypoxanthine incorporation; read-out: Activité/ Babesia à 10 millimole. An excerpt:
Le procédé de criblage d'activité anti-malaria, basé sur l'incorporation de l'(^3H) Hypoxanthine par le parasite, est utilisé pour tester l'activité anti-métabolique de tels composés sur Babesia Bovis, Babesia Canis. Une relation étroite est trouvée entre le taux d'incorporation de (^3H) Hypoxanthine dans une mesure standard et le pourcentage de cellules parasitées, déterminé par examen microscopique. Cette activité métabolique est quantifiée et évaluée dans le tableau ci-dessous par la cotation +++ pour les molécules affichant dans le test une inhibition de 50 % de l'incorporation de (^3H) Hypoxanthine (ID 50), ces molécules étant à une concentration inférieure ou égale à 0,01 Micromolaire. La cotation est de ++ pour la même activité à une concentration de 0,01 à 0.1 micromolaire et enfin de + pour une concentration inférieure ou égale à 1 Micromolaire.

Assay [2] deals with Plasmodium falciparum. Kind of assay: In vitro antimalarial activity, (3H) hypoxanthine incorporation in infected human erythrocytes (Desjardins test). In kind it is cell-based. To be noted: concentration inhibiting in vitro parasite growth by 50 %, human erythrocytes infected with Plasmodium falciparum, 24 h contact, test lasts 60 to 70 h, read-out: IC50 exprimée en micromoles. From the text:
L'activité antipaludéenne des dérivés selon les exemples précédents est testée sur l'humain infesté par Plasmodium falciparum. Le produit à tester est mis en contact avec les érythrocytes humains infectés pendant 24 heures. Un précurseur radioactif d'acides nucléiques l'Hypoxanthine (^3H) est ensuite ajouté. Le précurseur ne s'incorpore que dans les cellules infectées par un parasite en croissance, c'est à dire dans les cellules que la drogue n'aura pas affectées.
L'aptitude ou non à incorporer le précurseur reflète donc la viabilité des cellules impaludées. La durée des tests est de 60 à 70 heures ( test de DESJARDINS R.E. , CANFIELD C.J., HATNES J.D. et CHULAY J.D., Antimicrob. Agents Chemother. 1979, 16, p 710-718 ). Les résultats sont consignés dans le tableau I ci-après, sous forme de IC50 (ou DE50), soit la concentration de produit dans le milieu expérimental capable d'inhiber in vitro la croissance du parasite d'une valeur de 50%.

Setting [3] is: Plasmodium falciparum, Erythrocyte.

For `CCC[N+](C)(CC)CCCCCCCCCCCCCC[N+](C)(CC)CCC` (stereo not drawn) [EXEMPLE1, N, N'-dimethyl-N, N'-diethyl-N, N'-dipropyl-1, 14 tetradecanediaminium, dibromure], the IC50 in assay [1] was 10 to 100 nM; in assay [2] (setting [3]), 10 nM.
Regarding `CCC[N+](C)(CC)CCCCCCCCCCCCCCC[N+](C)(CC)CCC` (stereo not drawn) [EXEMPLE 2, N,N'-dimethyl-N, N'-diethyl-N, N'-dipropyl-1, 15-pentadecanediaminium, dibromure], the IC50 in assay [1] is 100 to 1000 nM; in assay [2] (setting [3]) it was 10 nM.
The corresponding values for `CCC[N+](C)(CC)CCCCCCCCCCCCCCCC[N+](C)(CC)CCC` (stereo not drawn) [EXEMPLE 3, N.N'-dimethyl-N.N'-diethyl-N, N'-dipropyl-1,16-exadecanediaminium, dibromure] are 10 to 100 nM and 3 nM.
For `CCC[N+](C)(CC)CCCCCCCCCCCCCCCCC[N+](C)(CC)CCC` (stereo not drawn) [EXEMPLE 4, N,N'-dimethyl-N, N'-diethyl-N, N'-dipropyl-1, 17-heptadecanediaminium, dibromure], in that order: 10 to 100 nM and 2 nM.
The corresponding values for `CCC[N+](C)(CC)CCCCCCCCCCCCCCCCCC[N+](C)(CC)CCC` (stereo not drawn) [EXEMPLE 5, N,N'-dimethyl-N,N'-diethyl-N,N'-dipropyl-1,18-octadecanediaminium, dibromure] are less than 10 nM and 1 nM.
Turning to `CCC[N+](C)(CC)CCCCCCCCCCCCCCCCCCCC[N+](C)(CC)CCC` (stereo not drawn) [EXEMPLE 6, N, N'-dimethyl-N, N'-diethyl-N, N'-dipropyl-1,20-eicosanediaminium, dibromure], the values for the IC50 in assay [1] and in assay [2] (setting [3]) were 10 to 100 nM and 3 nM, respectively.
Turning to `CCC[N+](C)(CC)CCCCCCCCCCCCCCCCCCCCCC[N+](C)(CC)CCC` (stereo not drawn) [EXEMPLE 7, N,N'-dimethyl-N, N'-diethyl-N, N'-dipropyl-1,22-Cosanediaminium, dibromure], the IC50 in assay [1] was 10 to 100 nM; in assay [2] (setting [3]), 10 nM.
For `CCC[N+](CCC)(CCC)CCCCCCCCCCCCCC[N+](CCC)(CCC)CCC` [EXEMPLE 8, N, N, N, N', N', N' hexapropyl-1, 14-tetradecanediaminium, dibromure], in that order: 100 to 1000 nM and 100 nM.
For the compound `CCC[N+](CCC)(CCC)CCCCCCCCCCCCCCCC[N+](CCC)(CCC)CCC` [EXEMPLE 9, N, N, N, N', N', N' hexapropyl-1, 16-hexadecanediaminium, dibromure], the IC50 in assay [1] is less than 10 nM; in assay [2], 7 nM.
Consider `CCC[N+](CCC)(CCC)CCCCCCCCCCCCCCCCCCCC[N+](CCC)(CCC)CCC` [EXEMPLE 10, N, N, N, N', N', N' hexapropyl-1,20-eicosanediaminium, dibromure], for which the IC50 is 100 to 1000 nM in assay [1] and 700 nM in assay [2] (setting [3]).
As for `CCC[N+](CCC)(CCC)CCCCCCCCCCCCCCCCCCCCCCCC[N+](CCC)(CCC)CCC` [EXEMPLE 11, N, N, N, N', N', N' hexapropyl-1,24-tetracosanediaminium, dibromure], the IC50 is 100 to 1000 nM in assay [1] and 1600 nM in assay [2] (setting [3]).
As to `CCC[N+](CCC)(CCC)CCCCCCCCCCCCCCCC[N+](CCC)(CCC)CCC` [EXEMPLE 12, N, N, N, N', N', N' hexapropyl-1,16-hexadecanediaminium, dibromure], the IC50 in assay [1] is 10 to 100 nM; in assay [2], 1 nM.
`CC[N+](C)(CC)CCCCCCCCCCCCCCCC[N+](C)(CC)CC` [EXEMPLE 13, N,N'-dimethyl-N,N,N',N'-tetraethyl-1,16-hexadecanediaminium, dibromure]: the results for the IC50 in assay [1] and in assay [2] (setting [3]) were less than 10 nM and 0.5 nM, respectively.
The corresponding values for `CC[N+](C)(CC)CCCCCCCCCCCCCCCCCCCCC[N+](C)(CC)CC` [EXEMPLE 15, N,N'-dimethyl-N,N,N',N'-tetraethyl-1,21-heneicosanediaminium, dibromure] are less than 10 nM and 0.003 nM.
In the case of `C[N+]1(CCCCCCCCCCCCCCCC[N+]2(C)CCCC2)CCCC1` [EXEMPLE 17, 1,1-(1,16-hexadecanediyl) bis (1-methylpyrrolidinium) dibromure], the figures for the IC50 in assay [1] and in assay [2] (Erythrocyte) were less than 10 nM and 0.6 nM, respectively.
Turning to `C[N+]1(CCCCCCCCCCCCCCCCCCCCCC[N+]2(C)CCCC2CO)CCCC1CO` (stereo not drawn) [EXEMPLE 19, 1,1'-(1,22-docosanediyl) bis (2-hydroxymethyl1-methylpyrrolidinium) dibromure], the IC50 in assay [1] is 100 to 1000 nM; in assay [2] (setting [3]), 70 nM.
Consider `C[N+]1(CCCCCCCCCCCCCCCC[N+]2(C)CCOCC2)CCOCC1` [EXEMPLE 21, 1,1'-(1.16-hexadecanediyl) bis (1-methylmorpholinium) dibromure], for which the IC50 in assay [1] was less than 10 nM; in assay [2] (setting [3]) it was 1 nM.
The corresponding values for `CCCCCCCCCCCC[N+](C)(C)CCCCCCCCCCCCCCCC[N+](C)(C)CCCCCCCCCCCC` [EXEMPLE 22, N,N'-didodecyl-N,N,N',N'-tetramethyl- 1,16 hexadecanediaminium dibromure] are 10 to 100 nM and 1000 nM.
Turning to `CCCCCCCCCCCC[N+](C)(C)CCCCCCCCCCCCCCCCCC[N+](C)(C)CCCCCCCCCCCC` [EXEMPLE 23], the IC50 was 100 to 1000 nM in assay [1] and 100 nM in assay [2] (setting [3]).
For `C#CC[N+](C)(C)CCCCCCCCCCCCCC[N+](C)(C)CC#C` [EXEMPLE 24, N,N'-di (2-propynyl)-N,N,N',N'-tetramethyl-1,14-tetradecane diaminium dibromure], in that order: 10 to 100 nM and 7 nM.
Regarding `CCC[N+](CCC)(CCO)CCCCCCCCCCCCCC[N+](CCC)(CCC)CCO` [EXEMPLE 27, N, N'-di-(2-hydroxyethyl) -N, N, N', N'-tetrapropyl-1, 14 tetradecane diaminium dibromure], the IC50 in assay [1] is 10 to 100 nM; in assay [2] (setting [3]), 10 nM.
For `CCC[N+](CCC)(CCCCCCCCCCCCCC[N+](CCC)(CCC)CCOCC)CCOCC` [EXEMPLE 28, N, N'-di-(2-ethoxyethyl)-N, N, N', N'-tetrapropyl-1, 14 tetradecanediaminium dibromure], in that order: less than 10 nM and 10 nM.
The corresponding values for `CCC[N+](CCC)(CCO)CCCCCCCCCCCCCCCC[N+](CCC)(CCC)CCO` [EXEMPLE 29, N, N'-di-(2-hydroxyethyl) -N, N, N', N'-tetrapropyl-1, 1 6 hexadecane diaminium dibromure] are 10 to 100 nM and 5 nM.
Take `CCC[N+](CCC)(CCO)CCCCCCCCCCCCCCCCCCCC[N+](CCC)(CCC)CCO` [EXEMPLE 30, N, N'-di-(2-hydroxyethyl)-N, N, N', N'-tetrapropyl-1,20-eicosanediaminium dibromure]: the IC50 is less than 10 nM in assay [1] and 0.3 nM in assay [2] (setting [3]).
